Values quoted from earlier work as cited in patent US11872314B2, “Pharmaceutical compositions” (Shin Nippon Biomedical Laboratories, Ltd., priority 2016, dated 2024).

Settings: at 25° C.

Compound: COc1ccc2c(c1)c(CC(=O)O)c(C)n2C(=O)c1ccc(Cl)cc1 [Indomethacin, indomethacin]
- Water solbility: 0.937 µg/mL
